According to ChEMBL document CHEMBL1909046, “DrugMatrix in vitro pharmacology data”:

Experiments:
Interstitial collagenase = biological target: T1, Interstitial collagenase (Homo sapiens, UniProt P03956); format: tissue-based, Rheumatoid synovial fibroblasts;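 note: MMP-1 enzyme inhibition assay using a peptide substrate; in other assays of this panel Not Active means under 50% inhibition at 10 µM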
T1 sequence (P03956 whole entry): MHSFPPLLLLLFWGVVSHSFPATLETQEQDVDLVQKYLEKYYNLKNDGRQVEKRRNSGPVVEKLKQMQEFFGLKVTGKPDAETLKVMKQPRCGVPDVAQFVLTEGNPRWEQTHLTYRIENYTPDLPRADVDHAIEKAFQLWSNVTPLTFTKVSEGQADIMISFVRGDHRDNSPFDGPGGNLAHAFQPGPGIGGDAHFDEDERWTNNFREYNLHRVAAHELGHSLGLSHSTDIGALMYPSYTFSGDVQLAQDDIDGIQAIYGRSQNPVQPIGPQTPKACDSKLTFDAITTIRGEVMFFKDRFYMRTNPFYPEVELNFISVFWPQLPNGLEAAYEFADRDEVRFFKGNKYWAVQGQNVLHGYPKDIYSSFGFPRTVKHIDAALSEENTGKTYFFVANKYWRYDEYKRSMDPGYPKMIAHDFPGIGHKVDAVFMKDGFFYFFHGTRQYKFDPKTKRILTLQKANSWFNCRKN

[1] = biological target: Mitogen-activated protein kinase 14 (Homo sapiens, UniProt Q16539); parameters: species or system Escherichia coli;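 note: inhibition of p38alpha enzyme activity in a biochemical kinase assay, with myelin basic protein serving as substrate; in other assays of this panel Not Active means under 50% inhibition at 10 µM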
Sequence of Mitogen-activated protein kinase 14 (Q16539 whole entry): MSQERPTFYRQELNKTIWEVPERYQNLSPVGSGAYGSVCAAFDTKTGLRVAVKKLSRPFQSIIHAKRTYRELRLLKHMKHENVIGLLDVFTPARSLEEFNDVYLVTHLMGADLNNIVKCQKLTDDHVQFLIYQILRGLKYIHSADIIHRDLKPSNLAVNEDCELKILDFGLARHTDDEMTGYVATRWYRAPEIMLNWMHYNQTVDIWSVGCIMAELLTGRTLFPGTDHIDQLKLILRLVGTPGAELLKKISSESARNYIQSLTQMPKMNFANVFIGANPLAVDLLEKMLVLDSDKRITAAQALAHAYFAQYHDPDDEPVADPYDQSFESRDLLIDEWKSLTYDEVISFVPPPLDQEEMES

[2] = DRUGMATRIX: Glutamate, AMPA radioligand binding (ligand: [3H] AMPA); format: cell membranes, Rattus norvegicus, Wistar, Cerebral cortex, Membrane; conditions: Not Active = under 50% inhibition at 10 µM
[3] = DRUGMATRIX: Phorbol Ester radioligand binding (ligand: [3H] PDBu); format: cell membranes, Mus musculus, ICR, Brain, Membrane; conditions: Not Active = under 50% inhibition at 10 µM
D(3) dopamine receptor = D(3) dopamine receptor (Homo sapiens, UniProt P35462); test: DRUGMATRIX: Dopamine D3 radioligand binding (ligand: [3H] Spiperone); format: cell membranes, CHO, Membrane; conditions: cho
Sequence of D(3) dopamine receptor (P35462 whole entry): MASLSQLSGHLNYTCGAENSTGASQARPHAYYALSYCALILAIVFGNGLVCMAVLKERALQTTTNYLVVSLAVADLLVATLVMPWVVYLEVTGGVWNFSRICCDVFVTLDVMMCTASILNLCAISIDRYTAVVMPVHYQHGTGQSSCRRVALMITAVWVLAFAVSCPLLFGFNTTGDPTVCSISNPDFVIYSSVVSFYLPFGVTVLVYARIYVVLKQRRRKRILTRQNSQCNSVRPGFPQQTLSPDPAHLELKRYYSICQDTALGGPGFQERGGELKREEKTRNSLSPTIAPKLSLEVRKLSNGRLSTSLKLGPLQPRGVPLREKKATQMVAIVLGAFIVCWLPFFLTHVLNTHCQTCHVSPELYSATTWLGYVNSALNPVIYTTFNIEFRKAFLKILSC

[4] = biological target: Tyrosine-protein kinase Fyn (Homo sapiens, UniProt P06241); test: biochemical; format: cell-based, Insect cells; conditions: insect cells;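 note: enzymatic inhibition of Fyn kinase activity measured with Poly(Glu:Tyr) as the phosphorylation substrate; in other assays of this panel Not Active means under 50% inhibition at 10 µM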
Sequence of Tyrosine-protein kinase Fyn (P06241 whole entry): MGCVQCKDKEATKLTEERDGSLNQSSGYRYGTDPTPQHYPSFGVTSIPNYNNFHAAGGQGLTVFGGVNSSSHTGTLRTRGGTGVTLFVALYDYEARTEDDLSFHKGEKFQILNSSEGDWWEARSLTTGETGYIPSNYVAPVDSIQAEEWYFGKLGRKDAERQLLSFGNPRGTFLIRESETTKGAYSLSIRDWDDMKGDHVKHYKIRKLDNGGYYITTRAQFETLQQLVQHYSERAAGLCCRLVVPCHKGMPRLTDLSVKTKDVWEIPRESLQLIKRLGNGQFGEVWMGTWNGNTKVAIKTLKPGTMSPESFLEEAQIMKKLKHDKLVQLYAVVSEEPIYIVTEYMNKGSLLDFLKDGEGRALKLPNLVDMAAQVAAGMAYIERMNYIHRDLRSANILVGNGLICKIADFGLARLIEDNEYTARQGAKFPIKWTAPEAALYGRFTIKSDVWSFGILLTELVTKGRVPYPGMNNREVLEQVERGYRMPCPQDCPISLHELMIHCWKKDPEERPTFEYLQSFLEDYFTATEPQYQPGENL

[5] = biological target: Aldo-keto reductase family 1 member B1 (Rattus norvegicus, UniProt P07943); format: tissue-based, Lens of camera-type eye;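 note: inhibition of aldose reductase enzyme activity, measured with DL-glyceraldehyde as the substrate; in other assays of this panel Not Active means under 50% inhibition at 10 µM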
[6] = DRUGMATRIX: Calcium Channel Type L, Dihydropyridine radioligand binding (ligand: [3H] Nitrendipine); format: cell membranes, Rattus norvegicus, Wistar, Cerebral cortex, Membrane; conditions: Not Active = under 50% inhibition at 10 µM
Adenosine receptor A3 = biological target: T2, Adenosine receptor A3 (Homo sapiens, UniProt P0DMS8); format: cell membranes, CHO-K1, Membrane; conditions: cho-k1
T2 sequence (P0DMS8 whole entry): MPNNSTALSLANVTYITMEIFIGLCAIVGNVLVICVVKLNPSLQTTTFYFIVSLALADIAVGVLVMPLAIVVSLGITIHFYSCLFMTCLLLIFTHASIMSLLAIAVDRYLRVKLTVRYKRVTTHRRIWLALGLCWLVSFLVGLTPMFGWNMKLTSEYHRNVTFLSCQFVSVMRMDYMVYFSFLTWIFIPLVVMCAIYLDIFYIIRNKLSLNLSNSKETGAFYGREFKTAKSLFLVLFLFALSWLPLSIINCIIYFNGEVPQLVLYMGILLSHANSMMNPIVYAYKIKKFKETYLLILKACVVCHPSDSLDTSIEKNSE

Progesterone receptor = biological target: T3, Progesterone receptor (Bos taurus, UniProt Q690N0); test: DRUGMATRIX: Progesterone radioligand binding (ligand: [3H] R-5020); format: tissue-based, Uterus; conditions: Not Active = under 50% inhibition at 10 µM
T3 sequence (Q690N0 whole entry): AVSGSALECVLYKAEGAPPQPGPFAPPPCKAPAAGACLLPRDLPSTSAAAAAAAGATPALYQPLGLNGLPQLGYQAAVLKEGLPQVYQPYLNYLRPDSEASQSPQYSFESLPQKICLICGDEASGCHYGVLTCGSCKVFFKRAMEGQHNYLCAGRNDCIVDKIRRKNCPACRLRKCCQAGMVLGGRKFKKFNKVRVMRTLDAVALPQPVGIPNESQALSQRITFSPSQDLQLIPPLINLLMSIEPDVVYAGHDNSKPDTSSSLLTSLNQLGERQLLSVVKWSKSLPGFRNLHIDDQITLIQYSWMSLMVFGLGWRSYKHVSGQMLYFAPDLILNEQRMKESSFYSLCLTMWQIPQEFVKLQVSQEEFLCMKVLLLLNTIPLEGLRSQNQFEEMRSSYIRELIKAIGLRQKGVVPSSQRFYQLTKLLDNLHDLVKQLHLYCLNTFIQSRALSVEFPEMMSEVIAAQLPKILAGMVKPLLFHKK

Substance-P receptor = Substance-P receptor (Homo sapiens, UniProt P25103); format: cell membranes, CHO, Membrane; conditions: cho; note: in other assays of this panel Not Active means under 50% inhibition at 10 µM
Sequence of Substance-P receptor (P25103 whole entry): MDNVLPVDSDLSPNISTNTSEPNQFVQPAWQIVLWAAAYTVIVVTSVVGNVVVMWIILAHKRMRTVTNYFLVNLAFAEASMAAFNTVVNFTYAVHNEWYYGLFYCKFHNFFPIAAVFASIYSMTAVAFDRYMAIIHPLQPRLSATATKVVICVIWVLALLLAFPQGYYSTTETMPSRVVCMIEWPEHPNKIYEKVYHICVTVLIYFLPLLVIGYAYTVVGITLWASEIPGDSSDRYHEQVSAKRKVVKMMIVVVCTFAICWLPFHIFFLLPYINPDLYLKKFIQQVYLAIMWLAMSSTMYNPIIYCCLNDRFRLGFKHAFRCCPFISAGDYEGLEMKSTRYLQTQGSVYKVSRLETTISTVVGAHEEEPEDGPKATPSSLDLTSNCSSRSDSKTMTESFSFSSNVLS

Carbonic anhydrase 2 = Carbonic anhydrase 2 (Homo sapiens, UniProt P00918); test: DRUGMATRIX: Carbonic Anhydrase II enzyme inhibition (substrate: 4-Nitrophenyl acetate (4-NPA)); format: tissue-based, Erythrocyte; conditions: erythrocyte; Not Active = under 50% inhibition at 10 µM
[7] = DRUGMATRIX: GABAA, Flunitrazepam, Central radioligand binding (ligand: [3H] Flunitrazepam); format: cell membranes, Rattus norvegicus, Wistar, Brain, Membrane; conditions: Not Active = under 50% inhibition at 10 µM
[8] = DRUGMATRIX: Glutamate, Kainate radioligand binding (ligand: [3H] Kainic acid); format: cell membranes, Rattus norvegicus, Wistar, Brain, Membrane; conditions: Not Active = under 50% inhibition at 10 µM
Melanocortin receptor 3 = Melanocortin receptor 3 (Homo sapiens, UniProt P41968); format: cell membranes, Membrane; conditions: hek293; note: in other assays of this panel Not Active means under 50% inhibition at 10 µM
Sequence of Melanocortin receptor 3 (P41968 whole entry): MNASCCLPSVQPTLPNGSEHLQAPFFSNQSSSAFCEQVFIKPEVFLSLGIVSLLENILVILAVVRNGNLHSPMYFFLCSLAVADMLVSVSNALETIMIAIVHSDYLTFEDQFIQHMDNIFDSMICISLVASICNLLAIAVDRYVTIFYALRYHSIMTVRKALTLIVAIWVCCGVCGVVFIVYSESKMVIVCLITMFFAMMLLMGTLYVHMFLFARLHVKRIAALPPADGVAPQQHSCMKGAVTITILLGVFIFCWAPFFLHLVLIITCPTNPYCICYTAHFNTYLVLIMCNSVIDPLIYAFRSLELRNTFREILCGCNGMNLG

[9] = biological target: T4, C-X-C chemokine receptor type 1 (Homo sapiens, UniProt P25024); note: in other assays of this panel Not Active means under 50% inhibition at 10 µM
T4 sequence (P25024 whole entry): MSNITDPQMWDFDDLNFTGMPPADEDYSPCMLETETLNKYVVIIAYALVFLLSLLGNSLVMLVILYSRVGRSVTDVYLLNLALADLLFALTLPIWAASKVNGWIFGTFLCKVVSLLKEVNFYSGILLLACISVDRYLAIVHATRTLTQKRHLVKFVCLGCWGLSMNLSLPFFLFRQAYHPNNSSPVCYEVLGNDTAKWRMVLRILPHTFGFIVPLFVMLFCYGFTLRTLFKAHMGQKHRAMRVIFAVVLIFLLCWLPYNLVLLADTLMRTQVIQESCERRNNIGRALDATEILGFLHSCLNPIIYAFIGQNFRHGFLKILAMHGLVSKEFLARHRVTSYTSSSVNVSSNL

D(1A) dopamine receptor = D(1A) dopamine receptor (Homo sapiens, UniProt P21728); test: DRUGMATRIX: Dopamine D1 radioligand binding (ligand: [3H] SCH-23390); format: cell membranes, CHO, Membrane; conditions: cho, Not Active = under 50% inhibition at 10 µM
Sequence of D(1A) dopamine receptor (P21728 whole entry): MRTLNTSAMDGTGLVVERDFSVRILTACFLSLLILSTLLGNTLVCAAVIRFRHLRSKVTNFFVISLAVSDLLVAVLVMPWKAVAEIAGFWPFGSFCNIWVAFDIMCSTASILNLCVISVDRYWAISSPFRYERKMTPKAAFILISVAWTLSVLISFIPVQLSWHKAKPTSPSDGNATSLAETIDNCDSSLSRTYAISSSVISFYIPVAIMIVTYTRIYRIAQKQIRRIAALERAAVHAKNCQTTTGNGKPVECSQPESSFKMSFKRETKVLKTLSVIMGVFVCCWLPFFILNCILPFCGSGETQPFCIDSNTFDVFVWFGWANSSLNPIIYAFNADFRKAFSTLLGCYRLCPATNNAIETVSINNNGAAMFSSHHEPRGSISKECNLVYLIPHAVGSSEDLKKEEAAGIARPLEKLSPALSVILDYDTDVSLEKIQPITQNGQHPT

[10] = DRUGMATRIX: GABAA, Muscimol, Central radioligand binding (ligand: [3H] Muscimol); format: cell membranes, Rattus norvegicus, Wistar, Brain, Membrane; conditions: Not Active = under 50% inhibition at 10 µM
[11] = DRUGMATRIX: Serotonin (5-Hydroxytryptamine) 5-HT3 radioligand binding (ligand: [3H] GR-65630); format: cell membranes, Membrane; conditions: hek293; Not Active = under 50% inhibition at 10 µM
[12] = biological target: Delta-type opioid receptor (Homo sapiens, UniProt P41143); format: cell membranes, HEK293, Membrane; conditions: hek293; note: in other assays of this panel Not Active means under 50% inhibition at 10 µM
Sequence of Delta-type opioid receptor (P41143 whole entry): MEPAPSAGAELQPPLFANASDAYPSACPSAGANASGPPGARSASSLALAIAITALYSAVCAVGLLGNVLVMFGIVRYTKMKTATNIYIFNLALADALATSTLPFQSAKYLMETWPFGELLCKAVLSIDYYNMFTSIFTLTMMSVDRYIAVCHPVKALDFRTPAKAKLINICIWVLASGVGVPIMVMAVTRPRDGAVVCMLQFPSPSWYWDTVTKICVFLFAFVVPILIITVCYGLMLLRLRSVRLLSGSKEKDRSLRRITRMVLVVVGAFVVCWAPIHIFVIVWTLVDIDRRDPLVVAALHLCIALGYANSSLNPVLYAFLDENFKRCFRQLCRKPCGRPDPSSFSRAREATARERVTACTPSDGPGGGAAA

Compound	IC50 (Interstitial collagenase)	IC50 [1]	IC50 [2]	Ki [2]	IC50 [3]	Ki [3]	IC50 [4]	IC50 [5]	IC50 [6]	Ki [6]	IC50 (Progesterone receptor)	IC50 (Substance-P receptor)	IC50 (Carbonic anhydrase 2)	IC50 [7]	Ki [7]	IC50 [8]	Ki [8]	IC50 (Melanocortin receptor 3)	IC50 [9]	IC50 [10]	also measured
COc1cc(C(=O)NC2CCCNC2)cc(OC)c1OC (stereo not drawn) [TROXIPIDE]	Not Active	Not Active	Not Active	Not Active	Not Active	Not Active	Not Active	Not Active	Not Active	Not Active	Not Active	Not Active	Not Active	Not Active	Not Active	Not Active	Not Active	Not Active	Not Active	Not Active	IC50 (D(3) dopamine receptor): Not Active; IC50 (Adenosine receptor A3): Not Active; IC50 (D(1A) dopamine receptor): Not Active; Ki [10]: Not Active; IC50 [11]: Not Active; Ki [11]: Not Active; IC50 [12]: Not Active
IVERMECTIN	Not Active	Not Active	Not Active	Not Active	Not Active	Not Active	Not Active	Not Active	Not Active	Not Active	Not Active	Not Active	Not Active	Not Active	Not Active	Not Active	Not Active	Not Active	Not Active	Not Active	Ki (Interstitial collagenase): Not Active; Ki [1]: Not Active; IC50 (D(3) dopamine receptor; read-out: IC50): 2210 nM; Ki (D(3) dopamine receptor; read-out: Ki): 750 nM; Ki [4]: Not Active; Ki [5]: Not Active; IC50 (Adenosine receptor A3; read-out: IC50): 512 nM; Ki (Adenosine receptor A3; read-out: Ki): 289 nM; Ki (Progesterone receptor): Not Active; Ki (Substance-P receptor): Not Active; Ki (Carbonic anhydrase 2): Not Active; Ki (Melanocortin receptor 3): Not Active; Ki [9]: Not Active; IC50 (D(1A) dopamine receptor; read-out: IC50): 4510 nM; Ki (D(1A) dopamine receptor; read-out: Ki): 2260 nM; Ki [10]: Not Active; IC50 [11]: Not Active; Ki [11]: Not Active; IC50 [12]: Not Active; Ki [12]: Not Active
CC1(C)[C@H]2CC[C@]1(C)C(=O)C2 [(-)-CAMPHOR]	Not Active	Not Active	Not Active	Not Active	Not Active	Not Active	Not Active	Not Active	Not Active	Not Active	Not Active	Not Active	Not Active	Not Active	Not Active	Not Active	Not Active	Not Active	Not Active	Not Active	IC50 (D(3) dopamine receptor): Not Active; IC50 (Adenosine receptor A3): Not Active; IC50 (D(1A) dopamine receptor): Not Active; Ki [10]: Not Active; IC50 [11]: Not Active; Ki [11]: Not Active; IC50 [12]: Not Active
c1ccc2[nH]c(-c3cscn3)nc2c1 [THIABENDAZOLE]	Not Active	Not Active	Not Active	Not Active	Not Active	Not Active	Not Active	Not Active	Not Active	Not Active	Not Active	Not Active	Not Active	Not Active	Not Active	Not Active	Not Active	Not Active	Not Active	Not Active	IC50 (D(3) dopamine receptor): Not Active; IC50 (Adenosine receptor A3): Not Active; IC50 (D(1A) dopamine receptor): Not Active; Ki [10]: Not Active; IC50 [11]: Not Active; Ki [11]: Not Active; IC50 [12]: Not Active
CC[C@H]1OC(=O)[C@H](C)[C@@H](O[C@H]2C[C@@](C)(OC)[C@@H](O)[C@H](C)O2)[C@H](C)[C@@H](O[C@@H]2O[C@H](C)C[C@H](N(C)C)[C@H]2O)[C@](C)(O)C[C@@H](C)/C(=N\OCOCCOC)[C@H](C)[C@@H](O)[C@]1(C)O [ROXITHROMYCIN]	Not Active	Not Active	Not Active	Not Active	Not Active	Not Active	Not Active	Not Active	Not Active	Not Active	Not Active	Not Active	Not Active	Not Active	Not Active	Not Active	Not Active	Not Active	Not Active	Not Active	IC50 (D(3) dopamine receptor): Not Active; IC50 (Adenosine receptor A3): Not Active; IC50 (D(1A) dopamine receptor): Not Active; Ki [10]: Not Active; IC50 [11]: Not Active; Ki [11]: Not Active; IC50 [12]: Not Active
